Consider one compound from paper PMC9786103, “Potent and Selective Inhibition of CYP1A2 Enzyme by Obtusifolin and Its Chemopreventive Effects” (Pharmaceutics, 2022).

Where two headings read alike, the source gives them in different places.

Data set [1] deals with T1, CYP2A6 (Homo sapiens, UniProt P11509).
T1 construct: Mixtures of pooled HLM, P450 substrates, and obtusifolin; tissue XenoTech XTreme 200; host or cells: pooled human liver microsomes
T1 sequence (P11509 1-494): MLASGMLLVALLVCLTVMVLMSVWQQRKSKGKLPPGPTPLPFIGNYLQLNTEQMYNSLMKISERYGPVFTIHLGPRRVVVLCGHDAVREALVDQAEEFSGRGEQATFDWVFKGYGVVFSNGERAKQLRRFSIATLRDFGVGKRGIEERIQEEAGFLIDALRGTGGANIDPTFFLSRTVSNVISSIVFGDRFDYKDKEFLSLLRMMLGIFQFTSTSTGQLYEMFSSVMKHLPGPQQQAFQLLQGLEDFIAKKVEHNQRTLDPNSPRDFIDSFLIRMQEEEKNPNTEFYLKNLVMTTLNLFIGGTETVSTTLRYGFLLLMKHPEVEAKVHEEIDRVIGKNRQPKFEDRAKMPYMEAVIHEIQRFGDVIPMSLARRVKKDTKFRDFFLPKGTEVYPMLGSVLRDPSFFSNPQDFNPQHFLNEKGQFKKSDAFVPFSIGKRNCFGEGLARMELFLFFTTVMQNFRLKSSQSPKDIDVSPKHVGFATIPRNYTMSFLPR
The experiment in a line: Coumarin 7-hydroxylation in human liver microsomes. Format: biochemical. The conditions noted are these: HLMs.
Method: The following P450 isoform-specific substrates were used: coumarin (CYP2A6); bupropion (CYP2B6); amodiaquine (CYP2C8); tolbutamide (CYP2C9); omeprazole (CYP2C19); dextromethorphan (CYP2D6); chlorzoxazone (CYP2E1); and midazolam (CYP3A). […] NGS was introduced to start the reaction, which was followed by an additional incubation (15 min). Following reaction termination, aliquots of the supernatants were analyzed with LC-MS/MS.
Reverse phase column (Kinetex XB-C18, 100 × 2.10 mm; Phenomenex, Torrance, CA, USA) and triple-quadrupole mass spectrometer (LCMS 8060, Shimadzu, Kyoto, Japan) with an ultra high-performance LC system (Nexera X2, Shimadzu) analyze all the metabolites. […] For each metabolite, quantitation was carried out in selected reaction monitoring (SRM) mode using the following precursor-to-product ion transition: m/z 152 > 110 for acetaminophen (CYP1A2), m/z 214 > 186 for resorufin (CYP1A1 and CYP1A2), m/z 163 > 107 for 7-hydroxycoumarin (CYP2A6), m/z 256 > 238 for 6-hydroxybupropion (CYP2B6), m/z 328 > 283 for N-desethylamodiaquine (CYP2C8), m/z 287 > 89 for 5-hydroxytolbutamide (CYP2C9), m/z 362 > 214 for 4-hydroxyomeprazole (CYP2C9), m/z 258 > 157 for dextrorphan (CYP2D6), m/z 184 > 120 for 6-hydroxychlorzoxazone (CYP2E1), m/z 342 > 203 for 1′-hydroxymidazolam (CYP3A), and m/z 295 > 100 for trimipramine (IS) [23, 24].

Data set [2] deals with T2, rCYP1A2 (Homo sapiens, UniProt P05177).
T2 construct: purchased SPMED (Busan, Republic of Korea)
T2 sequence (P05177 1-516): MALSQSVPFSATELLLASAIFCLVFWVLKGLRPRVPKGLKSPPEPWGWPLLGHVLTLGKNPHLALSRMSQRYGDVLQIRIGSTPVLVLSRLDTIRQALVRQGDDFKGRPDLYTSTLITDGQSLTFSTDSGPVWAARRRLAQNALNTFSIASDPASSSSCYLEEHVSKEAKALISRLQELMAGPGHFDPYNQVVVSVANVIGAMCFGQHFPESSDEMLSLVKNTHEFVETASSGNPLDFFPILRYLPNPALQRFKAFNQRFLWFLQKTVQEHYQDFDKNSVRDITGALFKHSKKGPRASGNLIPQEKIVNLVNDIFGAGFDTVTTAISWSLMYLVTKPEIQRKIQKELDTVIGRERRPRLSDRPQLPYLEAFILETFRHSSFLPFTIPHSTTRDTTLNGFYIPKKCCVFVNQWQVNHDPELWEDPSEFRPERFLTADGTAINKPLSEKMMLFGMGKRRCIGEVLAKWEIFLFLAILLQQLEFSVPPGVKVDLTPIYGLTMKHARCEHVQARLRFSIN
The experiment in a line: Ethoxyresorufin O-deethylation (EROD) in recombinant CYP1A2. The conditions noted are these: rCYP1A2 10 pmol/mL, 7-ethoxyresorufin 2 µM, 20 min; read-out: IC50, CYP1A2-mediated EROD. Format: biochemical. As to the method: The inhibitory effects of obtusifolin on the CYP1A-mediated ethoxyresorufin O-deethylation (EROD) activity of rCYP1A1 and rCYP1A2 enzymes (10 pmol/mL) were investigated. […] The other conditions, except for the incubation time (20 min), were similar to those used in the P450 inhibition study, as described earlier.

The conditions of data set [3]: read-out: Maximum concentration (Cmax) of obtusifolin in rat blood, cited from earlier work.

For `COc1c(O)c(C)cc2c1C(=O)c1c(O)cccc1C2=O` [Obtusifolin, obtusifolin], the IC50 in data set [1] is > 50 µM; in data set [2] it was 0.57 ± 0.11 µM. The values for the Cmax in data set [3] (single oral Semen Cassiae extracts 1.25 g/kg (5.01 mg/g obtusifolin)) and in data set [3] (single oral obtusifolin 1.3 mg/kg) were 860 nM and 540 nM, respectively.
